Measurements: EP0527889B1, “QUINOLIZINONE TYPE COMPOUNDS” (priority 1990, dated 1991)
Converted amounts (≈) assume the structure as drawn. Counter-ions that a name gives are not always drawn.

Assays:
Assay in all cases: In vitro antibacterial activity, MIC by agar dilution
Assay type in all cases: cell-based
Details in all cases: BHI agar, 35-37°C, 20-24 hours, unit assumed
[1] = system: Klebsiella pneumoniae ATCC 8045
Experimental: (§1) Each plate was inoculated with 1:100 (or 1:10 for slow growing strains, primarily Micrococcus and Streptococcus) dilutions of up to 32 different microorganisms, using a Steers replicator block calibrated to deliver approximately 10^4 colony forming units (CFUs). The inoculated plates were incubated at from about 35°C to about 37°C for approximately 20-24 hours. In addition, a control plate using BHI agar containing no test compound was prepared and incubated at the beginning and at the end of each test. Ciprofloxacin was used as the control antibiotic.
(§2) The MIC was defined as the lowest concentration of test compound yielding no growth (a slight haze or sparsely isolated colonies at the inoculum spot) as compared to the growth control containing no test compound.

[2] = system: Enterobacter aerogenes ATCC 13048
Experimental: as §1, §2

[3] = system: Staphylococcus epidermidis 3519
Experimental: as §1, §2

[4] = system: Staphylococcus aureus CMX 553
Experimental: as §1, §2

[5] = system: Staphylococcus aureus 1775
Experimental: as §1, §2

[6] = system: Streptococcus bovis A5169
Experimental: as §1, §2

Escherichia coli JUHL = system: Escherichia coli JUHL
Experimental: as §1, §2

[7] = system: Micrococcus luteus ATCC 4698
Experimental: as §1, §2

Escherichia coli SS = system: Escherichia coli SS
Experimental: as §1, §2

[8] = system: Pseudomonas aeruginosa A5007
Experimental: as §1, §2

[9] = system: Staphylococcus aureus A5177
Experimental: as §1, §2

Pseudomonas cepacia 296I = system: Pseudomonas cepacia 296I
Experimental: as §1, §2

[10] = system: Pseudomonas aeruginosa K799/61
Experimental: as §1, §2

[11] = system: Pseudomonas aeruginosa 2862
Experimental: as §1, §2

[12] = system: Acinetobacter calcoaceticus CMX 669
Experimental: as §1, §2

[13] = system: Streptococcus agalactaciae CMX 508
Experimental: as §1, §2

Escherichia coli DC-2 = system: Escherichia coli DC-2
Experimental: as §1, §2

[14] = system: Providencia stuartii CMX 640
Experimental: as §1, §2

[15] = system: Streptococcus pyrogenes CONST
Experimental: as §1, §2

[16] = system: Staphylococcus aureus ATCC 6538P
Experimental: as §1, §2

[17] = system: Staphylococcus aureus NCTC 10649
Experimental: as §1, §2

[18] = system: Pseudomonas aeruginosa BMH10
Experimental: as §1, §2

[19] = system: Streptococcus pyrogenes 2548 INDUC
Experimental: as §1, §2

[20] = system: Staphylococcus aureus A-5278
Experimental: as §1, §2

[21] = system: Micrococcus luteus ATCC 9341
Experimental: as §1, §2

[22] = system: Pseudomonas aeruginosa K799/WT
Experimental: as §1, §2

[23] = system: Enterococcus faecium ATCC 8043
Experimental: as §1, §2

Escherichia coli H560 = system: Escherichia coli H560
Experimental: as §1, §2

[24] = system: Staphylococcus aureus 642A
Experimental: as §1, §2

Escherichia coli KNK 437 = system: Escherichia coli KNK 437
Experimental: as §1, §2

[25] = system: Streptococcus pyrogenes EES61
Experimental: as §1, §2

[26] = system: Pseudomonas aeruginosa 5263
Experimental: as §1, §2

Structure (SMILES) | MIC values [1] [µg/mL] | MIC values [2] [µg/mL] | MIC values [3] [µg/mL] | MIC values [4] [µg/mL] | MIC values [6] [µg/mL] | MIC values (Escherichia coli JUHL) [µg/mL] | MIC values [7] [µg/mL] | MIC values (Escherichia coli SS) [µg/mL] | MIC values [8] [µg/mL] | MIC values [9] [µg/mL] | MIC values (Pseudomonas cepacia 296I) [µg/mL] | MIC values [10] [µg/mL] | MIC values [12] [µg/mL] | MIC values [13] [µg/mL] | MIC values (Escherichia coli DC-2) [µg/mL] | MIC values [14] [µg/mL] | MIC values [15] [µg/mL] | MIC values [16] [µg/mL] | MIC values [17] [µg/mL] | MIC values [18] [µg/mL] | other results
O=C(O)c1cn(C2CC2)c2cc(N3CCNCC3)c(F)cc2c1=O [Cntl, Ciprofloxacin, reference compound] | 0.02 (≈ 0.0604 µM) | 0.05 (≈ 0.151 µM) | 0.39 (≈ 1.18 µM) | 0.78 (≈ 2.35 µM) | 1.56 (≈ 4.71 µM) | 0.01 (≈ 0.0302 µM) | 0.78 (≈ 2.35 µM) | 0.005 (≈ 0.0151 µM) | 0.1 (≈ 0.302 µM) | 0.39 (≈ 1.18 µM) | 3.1 (≈ 9.36 µM) | 0.02 (≈ 0.0604 µM) | 0.39 (≈ 1.18 µM) | 0.39 (≈ 1.18 µM) | 0.2 (≈ 0.604 µM) | 0.78 (≈ 2.35 µM) | 0.78 (≈ 2.35 µM) | 0.2 (≈ 0.604 µM) | 0.39 (≈ 1.18 µM) | 0.1 (≈ 0.302 µM) | MIC values [5]: > 100 µg/mL; MIC values [11]: 25 µg/mL (≈ 75.4 µM); MIC values [19]: 0.39 µg/mL (≈ 1.18 µM); MIC values [20]: 0.39 µg/mL (≈ 1.18 µM); MIC values [21]: 1.56 µg/mL (≈ 4.71 µM); MIC values [22]: 0.1 µg/mL (≈ 0.302 µM); MIC values [23]: 0.39 µg/mL (≈ 1.18 µM); MIC values (Escherichia coli H560): 0.01 µg/mL (≈ 0.0302 µM); MIC values [24]: 0.39 µg/mL (≈ 1.18 µM); MIC values (Escherichia coli KNK 437): 0.2 µg/mL (≈ 0.604 µM); MIC values [25]: 0.39 µg/mL (≈ 1.18 µM); MIC values [26]: 12.5 µg/mL (≈ 37.7 µM)
CN1CCN(c2nc3c(-c4ccc(F)cc4)cc(C(=O)O)c(=O)n3cc2F)CC1 [Example 2, 3-Fluoro-9-(4-fluorophenyl)-2-(4-methylpiperazin-1-yl)-6H-6-oxo-pyrido[1,2-a]pyrimidine-7-carboxylic acid] | 0.2 (≈ 0.5 µM) | 0.78 (≈ 1.95 µM) | 0.78 (≈ 1.95 µM) | 0.78 (≈ 1.95 µM) | 25 (≈ 62.4 µM) | 0.39 (≈ 0.974 µM) | 25 (≈ 62.4 µM) | 0.05 (≈ 0.125 µM) | 6.2 (≈ 15.5 µM) | 0.78 (≈ 1.95 µM) | 25 (≈ 62.4 µM) | 0.39 (≈ 0.974 µM) | 0.78 (≈ 1.95 µM) | 12.5 (≈ 31.2 µM) | 12.5 (≈ 31.2 µM) | 25 (≈ 62.4 µM) | 6.2 (≈ 15.5 µM) | 0.39 (≈ 0.974 µM) | 0.39 (≈ 0.974 µM) | 6.2 (≈ 15.5 µM) | MIC values [5]: 25 µg/mL (≈ 62.4 µM); MIC values [19]: 3.1 µg/mL (≈ 7.74 µM); MIC values [20]: 0.78 µg/mL (≈ 1.95 µM); MIC values [21]: 50 µg/mL (≈ 125 µM); MIC values [22]: 3.1 µg/mL (≈ 7.74 µM); MIC values [23]: 25 µg/mL (≈ 62.4 µM); MIC values (Escherichia coli H560): 0.39 µg/mL (≈ 0.974 µM); MIC values [24]: 0.78 µg/mL (≈ 1.95 µM); MIC values (Escherichia coli KNK 437): 6.2 µg/mL (≈ 15.5 µM); MIC values [25]: 6.2 µg/mL (≈ 15.5 µM)
CCc1cc(C(=O)O)c(=O)n2ccc(N3CCC(N)C3)cc12.Cl (stereo not shown) [Example 62, 8-(3-Amino-1-pyrrolidinyl)-1-ethyl-4H-quinolizin-4-one-3-carboxylic acid hydrochloride] | 3.1 | 3.1 | 12.5 | 12.5 | 25 | 3.1 | 12.5 | 0.39 | 6.2 | 12.5 | 3.1 | 0.05 | 0.78 | 25 | 25 | 25 | 25 | 3.1 | 6.2 | 6.2 | MIC values [19]: 25 µg/mL; MIC values [21]: 25 µg/mL; MIC values [22]: 6.2 µg/mL; MIC values [23]: 50 µg/mL; MIC values (Escherichia coli H560): 3.1 µg/mL; MIC values [24]: 6.2 µg/mL; MIC values (Escherichia coli KNK 437): 25 µg/mL; MIC values [25]: 25 µg/mL
NC1CCN(c2nc3c(C4CC4)cc(C(=O)O)c(=O)n3cc2F)C1 (stereo not shown) [Example 157, 2-(3-Aminopyrrolidin-1-yl)-9-cyclopropyl-3-fluoro-6H-6-oxo-pyrido[1,2-a]pyrimidine-7-carboxylic acid hydrochloride salt] | – | – | 0.39 | 0.39 | – | 0.02 | 1.56 | 0.01 | – | 0.39 | 3.1 | 0.05 | 0.2 | 1.56 | 0.39 | – | 1.56 | 0.2 | 0.2 | 0.2 | MIC values ([1]; hydrochloride salt): 0.02 µg/mL; MIC values ([2]; hydrochloride salt): 0.02 µg/mL; MIC values ([5]; hydrochloride salt): 25 µg/mL; MIC values ([6]; hydrochloride salt): 3.1 µg/mL; MIC values ([8]; hydrochloride salt): 0.39 µg/mL; MIC values ([11]; hydrochloride salt): 25 µg/mL; MIC values ([14]; hydrochloride salt): 1.56 µg/mL; MIC values ([19]; hydrochloride salt): 0.39 µg/mL; MIC values ([20]; hydrochloride salt): 0.39 µg/mL; MIC values [21]: 3.1 µg/mL; MIC values [22]: 0.2 µg/mL; MIC values [23]: 1.56 µg/mL; MIC values (Escherichia coli H560): 0.02 µg/mL; MIC values ([24]; hydrochloride salt): 0.39 µg/mL; MIC values (Escherichia coli KNK 437): 0.39 µg/mL; MIC values [25]: 1.56 µg/mL; MIC values [26]: 50 µg/mL
NC1CCN(c2nc3c(C4CC4)cc(C(=O)O)c(=O)n3cc2F)C1 (stereo not shown) [Example 158, 2-(3-Aminopyrrolidin-1-yl)-9-cyclopropyl-3-fluoro-6H-6-oxo-pyrido[1,2-a]pyrimidine-7-carboxylic acid] | 0.05 (≈ 0.15 µM) | 0.1 (≈ 0.301 µM) | 0.39 (≈ 1.17 µM) | – | 6.2 (≈ 18.7 µM) | 0.02 (≈ 0.0602 µM) | – | 0.01 (≈ 0.0301 µM) | 0.2 (≈ 0.602 µM) | – | – | – | – | – | – | 3.1 (≈ 9.33 µM) | – | – | – | – | MIC values [5]: 100 µg/mL (≈ 301 µM); MIC values [11]: 50 µg/mL (≈ 150 µM); MIC values [19]: 0.78 µg/mL (≈ 2.35 µM); MIC values [20]: 0.78 µg/mL (≈ 2.35 µM); MIC values [24]: 0.2 µg/mL (≈ 0.602 µM)
O=C(O)c1cc(C2CC2)c2nc(N3CCOCC3)c(F)cn2c1=O [Example 165, 9-Cyclopropyl-3-fluoro-2-(morpholin-1-yl)-6H-6-oxo-pyrido[1,2-a]pyrimidine-7-carboxylic acid] | 0.39 (≈ 1.17 µM) | 3.1 (≈ 9.3 µM) | 6.2 (≈ 18.6 µM) | 6.2 (≈ 18.6 µM) | > 100 | 3.1 (≈ 9.3 µM) | > 100 | 0.2 (≈ 0.6 µM) | 25 (≈ 75 µM) | 6.2 (≈ 18.6 µM) | 25 (≈ 75 µM) | 3.1 (≈ 9.3 µM) | 6.2 (≈ 18.6 µM) | > 100 | > 100 | > 100 | > 100 | 6.2 (≈ 18.6 µM) | 6.2 (≈ 18.6 µM) | 50 (≈ 150 µM) | MIC values [5]: > 100 µg/mL; MIC values [19]: > 100 µg/mL; MIC values [20]: 6.2 µg/mL (≈ 18.6 µM); MIC values [21]: > 100 µg/mL; MIC values [22]: 25 µg/mL (≈ 75 µM); MIC values [23]: > 100 µg/mL; MIC values (Escherichia coli H560): 3.1 µg/mL (≈ 9.3 µM); MIC values [24]: 6.2 µg/mL (≈ 18.6 µM); MIC values (Escherichia coli KNK 437): > 100 µg/mL; MIC values [25]: > 100 µg/mL
O=C(O)c1cc(-c2ccc(F)cc2F)c2nc(N3CCC(O)C3)c(F)cn2c1=O (stereo not shown) [Example 170, 9-(2,4-Difluorophenyl)-3-fluoro-2-(3-hydroxypyrrolidin-1-yl)-6H-6-oxopyrido[1,2-a]pyrimidine-7-carboxylic acid] | 0.05 (≈ 0.123 µM) | 0.39 (≈ 0.962 µM) | 0.2 (≈ 0.493 µM) | 0.2 (≈ 0.493 µM) | 6.2 (≈ 15.3 µM) | – | 1.56 (≈ 3.85 µM) | 0.001 (≈ 0.00247 µM) | 0.78 (≈ 1.92 µM) | 0.1 (≈ 0.247 µM) | 6.2 (≈ 15.3 µM) | 0.05 (≈ 0.123 µM) | 0.2 (≈ 0.493 µM) | 0.78 (≈ 1.92 µM) | 3.1 (≈ 7.65 µM) | 6.2 (≈ 15.3 µM) | 0.78 (≈ 1.92 µM) | 0.05 (≈ 0.123 µM) | 0.05 (≈ 0.123 µM) | 0.78 (≈ 1.92 µM) | MIC values [5]: 100 µg/mL (≈ 247 µM); MIC values [11]: > 100 µg/mL; MIC values [19]: 0.39 µg/mL (≈ 0.962 µM); MIC values [20]: 0.1 µg/mL (≈ 0.247 µM); MIC values [21]: 12.5 µg/mL (≈ 30.8 µM); MIC values [22]: 0.78 µg/mL (≈ 1.92 µM); MIC values [23]: 0.78 µg/mL (≈ 1.92 µM); MIC values (Escherichia coli H560): 0.1 µg/mL (≈ 0.247 µM); MIC values [24]: 0.1 µg/mL (≈ 0.247 µM); MIC values (Escherichia coli KNK 437): 1.56 µg/mL (≈ 3.85 µM); MIC values [25]: 0.78 µg/mL (≈ 1.92 µM); MIC values [26]: > 100 µg/mL
